# Counter-ions that a name gives are not always drawn.
# Biological target: T1, human mGluR7 (Homo sapiens, UniProt Q14831)
# T1 construct: expressed in transfected cells
# Test: mGluR7 assay: CRE-directed luciferase reporter gene assay, reduction of forskolin stimulated cAMP production
# Format: cell-based
# Details: stable CHO cell line expressing the CRE-luc reporter and human mGluR7 genes; decrease of forskolin stimulated luminescence; 10-point concentration-response, duplicate wells
# Method: The ability of the test compounds to activate mGluR7 was determined by their ability to reduce forskolin stimulated cAMP production. Compounds were assessed in a CRE-directed luciferase reporter gene assay, using a stable CHO cell line expressing the CRE-luc reporter and human mGluR7 genes. In this cell line, production of cAMP stimulated the transcription of the luciferase gene and luciferase activity was then measured in a luminescent enzyme assay (Steady Glo assay; Promega E2550). Activation of mGluR7 decreased the forskolin stimulated luminescence signal.
# The day prior to the assay, compounds were serially diluted in DMSO (100× final assay concentration (FAC)), in 384-well plates which were then stored in the dark at room temperature (RT) until use. Cells were seeded at 12.5 k/well in white, clear bottom 384-well plates (Corning 3707) and left for one hour at RT followed by an overnight incubation (37° C.). The following day, the DMSO compound plate was diluted 1:20 (5× FAC) in Opti-MEM I (Life Technologies 11058021). The growth media was removed from the cell plate and replaced with 15 μl Opti-MEM I, followed by a 5 μl addition from the 5× compound plate and a fifteen minute incubation (37° C.). Forskolin (Sigma F3917) was then added to the wells (5 μl of 2.5 μM) and the plate was incubated for five hours (37° C.). During this incubation, the Steady Glo Substrate reagent was warmed to 37° C. Aliquots (11 ml; stored at −20° C.) of this reagent were prepared by dissolving the contents of 1 vial of lyophilised substrate in 100 ml Steady-Glo buffer. A 25 μl addition of the substrate was made to all wells and the plate was incubated for thirty minutes at RT, on a plate shaker (300 rpm; in the dark). Luminescence was then measured using the EnVision Multilabel Reader (Perkin Elmer).
# Compound activity was examined using a 10-point, half log concentration-response range and each concentration was tested in duplicate wells. Luminescence values were normalised to ‘maximum’ (forskolin alone) and ‘minimum’ (forskolin in the presence of tool mGluR7 agonist) controls.
# T1 sequence (Q14831 35-915): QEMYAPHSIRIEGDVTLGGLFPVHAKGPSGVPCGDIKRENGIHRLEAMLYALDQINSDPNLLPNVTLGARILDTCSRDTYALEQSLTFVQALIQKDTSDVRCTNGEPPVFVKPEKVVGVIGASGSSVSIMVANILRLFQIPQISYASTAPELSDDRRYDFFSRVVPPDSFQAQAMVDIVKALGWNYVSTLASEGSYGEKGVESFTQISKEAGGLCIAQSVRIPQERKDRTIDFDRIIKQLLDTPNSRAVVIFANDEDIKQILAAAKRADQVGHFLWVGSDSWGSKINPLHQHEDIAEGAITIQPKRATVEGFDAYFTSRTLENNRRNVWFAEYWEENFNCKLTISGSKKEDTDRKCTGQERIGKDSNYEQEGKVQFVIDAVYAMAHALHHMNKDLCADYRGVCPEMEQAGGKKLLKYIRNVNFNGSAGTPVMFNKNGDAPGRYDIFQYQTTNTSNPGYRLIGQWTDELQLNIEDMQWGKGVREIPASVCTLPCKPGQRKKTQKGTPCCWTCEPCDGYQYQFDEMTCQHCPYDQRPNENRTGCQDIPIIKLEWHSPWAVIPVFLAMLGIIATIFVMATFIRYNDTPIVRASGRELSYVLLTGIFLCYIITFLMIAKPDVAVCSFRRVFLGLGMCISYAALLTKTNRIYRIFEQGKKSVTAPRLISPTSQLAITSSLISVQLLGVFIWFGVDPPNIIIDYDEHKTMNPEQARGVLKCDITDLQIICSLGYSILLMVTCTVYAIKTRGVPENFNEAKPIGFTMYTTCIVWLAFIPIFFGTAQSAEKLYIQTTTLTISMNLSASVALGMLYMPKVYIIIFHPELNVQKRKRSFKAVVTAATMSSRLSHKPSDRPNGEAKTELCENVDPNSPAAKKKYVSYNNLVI
row,SMILES,EC50 [µM]
1,"CS(=O)(=O)[C@@H]1c2ccccc2C[C@H]1NC(=O)C(OCC1CC1)c1ccc(F)cc1 (single isomer, unassigned) [Example 161, 2-(cyclopropylmethoxy)-2-(4-fluorophenyl)-N-(trans)-(1-methanesulfonyl-2,3-dihydro-1H-inden-2-yl)acetamide]",0.002
2,"CS(=O)(=O)[C@@H]1c2ccccc2C[C@H]1NC(=O)C(OCC1CC1)c1ccc(F)cc1 (single isomer, unassigned) [Example 162, 2-(cyclopropylmethoxy)-2-(4-fluorophenyl)-N-(trans)-(1-methanesulfonyl-2,3-dihydro-1H-inden-2-yl)acetamide]",0.002
3,"C[C@@H](C(=O)NC1Cc2ccccc2C1O)c1ccccc1 (stereo in doubt) [Example 1, (2R)—N-((trans)-1-hydroxy-2,3-dihydro-1H-inden-2-yl)-2-phenylpropanamide]",0.559
4,"COC1c2ccccc2CC1NC(=O)[C@@H](C)c1ccccc1 (stereo in doubt) [Example 10, (2S)—N-((cis)-1-methoxy-2,3-dihydro-1H-inden-2-yl)-2-phenylpropanamide]",1.03
5,"CCOC1c2ccccc2CC1NC(=O)[C@@H](C)c1ccc(F)cc1 (stereo in doubt) [Example 31, (2S)—N-((trans)-1-ethoxy-2,3-dihydro-1H-inden-2-yl)-2-(4-fluorophenyl)propanamide]",0.019
6,"COC1c2ccccc2CC1NC(=O)[C@@H](C)c1ccc(F)cc1 (stereo in doubt) [Example 39, (2S)-2-(4-fluorophenyl)-N-(cis)-(1-methoxy-2,3-dihydro-1H-inden-2-yl)propanamide]",0.633
7,"C[C@H](C(=O)NC1Cc2ccccc2C1O)c1ccc(F)cc1 (stereo in doubt) [Example 61, (2S)-2-(4-fluorophenyl)-N-(trans)-(1-hydroxy-2,3-dihydro-1H-inden-2-yl)propanamide]",0.056
8,"COC1c2ccccc2CC1NC(=O)[C@@H](NC(=O)c1cnn(C)c1)c1ccc(F)cc1 (stereo in doubt) [Example 65, (2S)-2-(4-fluorophenyl)-N-(trans)-(1-methoxy-2,3-dihydro-1H-inden-2-yl)-2-[(1-methyl-1H-pyrazol-4-yl)formamido]acetamide]",0.004
9,"COC1c2ccccc2CC1NC(=O)[C@@H](NC(=O)C1CC1)c1ccc(F)cc1 (stereo in doubt) [Example 66, (2S)-2-(cyclopropylformamido)-2-(4-fluorophenyl)-N-(trans)-(1-methoxy-2,3-dihydro-1H-inden-2-yl)acetamide]",0.004
10,"CC1c2ccccc2CC1NC(=O)[C@@H](NC(=O)OC(C)(C)C)c1ccc(F)cc1 (stereo in doubt) [Example 71, tert-butyl N—[(S)-(4-fluorophenyl)[(trans)-(1-methyl-2,3-dihydro-1H-inden-2-yl)carbamoyl]methyl]carbamate]",0.002
11,"COC1c2ccccc2CC1NC(=O)[C@@H](NS(C)(=O)=O)c1ccc(F)cc1 (stereo in doubt) [Example 72, (2S)-2-(4-fluorophenyl)-2-methanesulphonamido-N-(trans)-(1-methoxy-2,3-dihydro-1H-inden-2-yl)acetamide]",0.011
12,"CC1c2ccccc2CC1NC(=O)[C@@H](NS(C)(=O)=O)c1ccc(F)cc1 (stereo in doubt) [Example 85, (2S)-2-(4-fluorophenyl)-2-methanesulfonamido-N-((trans)-1-methyl-2,3-dihydro-1H-inden-2-yl)acetamide]",0.026
13,"CO[C@H](C(=O)NC1Cc2ccccc2C1S(C)(=O)=O)c1ccccc1 (stereo in doubt) [Example 149, (2S)—N-(trans)-(1-methanesulfonyl-2,3-dihydro-1H-inden-2-yl)-2-methoxy-2-phenylacetamide]",0.225
14,"CCS(=O)(=O)C1c2ccccc2CC1NC(=O)[C@@H](OC)c1ccccc1 (stereo in doubt) [Example 150, (2S)—N-(trans)-(1-ethanesulfonyl-2,3-dihydro-1H-inden-2-yl)-2-methoxy-2-phenylacetamide]",0.156
15,"C[C@H](C(=O)N[C@H]1Cc2ccccc2[C@@H]1N)c1ccccc1 [Example 11, (2S)—N-[(1S,2S)-1-amino-2,3-dihydro-1H-inden-2-yl]-2-phenylpropanamide hydrochloride]",0.119
16,"C[C@H](C(=O)N[C@@H]1Cc2ccccc2[C@H]1N)c1ccccc1 [Example 12, (2S)—N-[(1R,2R)-1-amino-2,3-dihydro-1H-inden-2-yl]-2-phenylpropanamide]",0.29

row,SMILES,EC50 [µM]
1,"CC(=O)N[C@H]1c2ccccc2C[C@@H]1NC(=O)[C@@H](C)c1ccccc1 [Example 13, (2S)—N-[(1S,2S)-1-acetamido-2,3-dihydro-1H-inden-2-yl]-2-phenylpropanamide]",1.2
2,"CCC(C(=O)N[C@H]1Cc2ccccc2[C@@H]1N)c1ccc(F)cc1F (stereo partly drawn) [Example 14, N-[(1S,2S)-1-amino-2,3-dihydro-1H-inden-2-yl]-2-(2,4-difluorophenyl)butanamide hydrochloride]",0.139
3,"CCC(C(=O)N[C@@H]1Cc2ccccc2[C@H]1N)c1ccc(F)cc1F (stereo partly drawn) [Example 17, N-[(1R,2R)-1-amino-2,3-dihydro-1H-inden-2-yl]-2-(2,4-difluorophenyl)butanamide hydrochloride]",0.195
4,"C[C@H](C(=O)N[C@@H]1Cc2ccccc2[C@H]1NC(=O)OC(C)(C)C)c1ccccc1 [Example 18, tert-butyl N-[(1R,2R)-2-[(2S)-2-phenylpropanamido]-2,3-dihydro-1H-inden-1-yl]carbamate]",0.15
5,"CO[C@H](C(=O)N[C@H]1Cc2ccccc2[C@@H]1N)c1ccccc1 [Example 19, (2S)—N-[(1S,2S)-1-amino-2,3-dihydro-1H-inden-2-yl]-2-methoxy-2-phenylacetamide hydrochloride]",0.973
6,"CC(C)C(C(=O)N[C@H]1Cc2ccccc2[C@@H]1N)c1ccc(Cl)cc1 (stereo partly drawn) [Example 20, N-[(1S,2S)-1-amino-2,3-dihydro-1H-inden-2-yl]-2-(4-chlorophenyl)-3-methylbutanamide hydrochloride]",0.104
7,"C[C@H](C(=O)N[C@H]1Cc2ccccc2[C@@H]1NC(=O)OC(C)(C)C)c1ccc(F)cc1 [Example 21, tert-butyl N-[(1S,2S)-2-[(2S)-2-(4-fluorophenyl)propanamido]-2,3-dihydro-1H-inden-1-yl]carbamate]",0.028
8,"CN[C@H]1c2ccccc2C[C@@H]1NC(=O)[C@@H](C)c1ccccc1 [Example 22, (2S)—N-[(1S,2S)-1-(methylamino)-2,3-dihydro-1H-inden-2-yl]-2-phenylpropanamide]",0.07
9,"C[C@H](C(=O)N[C@H]1Cc2ccccc2[C@@H]1NC(=O)OC(C)(C)C)c1ccc(F)cc1F [Example 23, tert-butyl N-[(1S,2S)-2-[(2S)-2-(2,4-difluorophenyl)propanamido]-2,3-dihydro-1H-inden-1-yl]carbamate]",0.018
10,"C[C@H](C(=O)N[C@H]1Cc2ccccc2[C@@H]1N)c1ccc(F)cc1 [Example 24, (2S)—N-[(1S,2S)-1-amino-2,3-dihydro-1H-inden-2-yl]-2-(4-fluorophenyl)propanamide]",0.066
11,"C[C@H](C(=O)N[C@H]1Cc2ccccc2[C@@H]1N)c1ccc(F)cc1F [Example 34, (2S)—N-[(1S,2S)-1-amino-2,3-dihydro-1H-inden-2-yl]-2-(2,4-difluorophenyl)propanamide]",0.095
12,"C[C@H](C(=O)N[C@@H]1Cc2ccccc2[C@H]1N)c1ccc(F)cc1F [Example 35, (2S)—N-[(1R,2R)-1-amino-2,3-dihydro-1H-inden-2-yl]-2-(2,4-difluorophenyl)propanamide]",0.233
13,"C[C@H](C(=O)N[C@H]1Cc2ccccc2[C@@H]1NCC1CCOCC1)c1ccc(F)cc1F [Example 40, (2S)-2-(2,4-difluorophenyl)-N-[(1S,2S)-1-{[(oxan-4-yl)methyl]amino}-2,3-dihydro-1H-inden-2-yl]propanamide]",0.023
14,"CCC(C(=O)N[C@@H]1Cc2ccccc2[C@H]1NC(=O)OC(C)(C)C)c1ccc(F)cc1F (stereo partly drawn) [Example 41, tert-butyl N-[(1R,2R)-2-[2-(2,4-difluorophenyl)butanamido]-2,3-dihydro-1H-inden-1-yl]carbamate]",0.216
15,"CC[C@H](C(=O)N[C@H]1Cc2ccccc2[C@@H]1NC(=O)OC(C)(C)C)c1ccc(F)cc1 [Example 42, tert-butyl N-[(1S,2S)-2-[(2S)-2-(4-fluorophenyl)butanamido]-2,3-dihydro-1H-inden-1-yl]carbamate]",0.013
16,"CC[C@H](C(=O)N[C@@H]1Cc2ccccc2[C@H]1NC(=O)OC(C)(C)C)c1ccc(F)cc1 [Example 43, tert-butyl N-[(1R,2R)-2-[(2S)-2-(4-fluorophenyl)butanamido]-2,3-dihydro-1H-inden-1-yl]carbamate]",0.13

# Source: patent publication US20190031599A1, “INDANE DERIVATIVES AS MGLUR7 MODULATORS” (Takeda Pharmaceutical Company Limited, priority 2016, published 2019)
